Source: patent publication US20220143026A1, “TRIPLE COMBINATION TO TREAT B-CELL MALIGNANCIES” (TG Therapeutics, Inc., priority 2020, published 2022)
Where two headings read alike, the source gives them in different places. Marks after values point to notes of the source that are not given here.

What was measured:
[1] = test system: IgM-activated BCR pathway; details: DOHH-2 cells; cited from earlier work
[2] = human, in vivo
EGFR = EGFR (Homo sapiens, UniProt P00533); details: cited from earlier work
[3] = Phase 1/1b clinical trial, pharmacokinetics; type: in vivo, human; details: patients
B-cell malignancies = assay: Phase 1/1b clinical trial, efficacy (response)
Procedure: All patients were treated until disease progression, unacceptable toxicity, or investigator/patient decision to withdraw.
All patients were treated until disease progression, unacceptable toxicity, or investigator/patient decision to withdraw study consent.
Evaluable patients had at least one response assessment.

BTK [4] = target: T1, BTK (Homo sapiens, UniProt Q06187); assay: Phase 1/1b clinical trial, pharmacodynamics (BTK occupancy); type: in vivo; parameters: endogenous in cells
[5] = comparison of atrial fibrillation adverse events between BTK inhibitors; type: in vivo, human; details: N=106
[6] = Phase 1/1b clinical trial, safety; details: for treatment discontinuation: Death: CLL, N = 20, death due to SARS-CoV-2 infection
[7] = test system: follicular lymphoma (FL) DOHH-2 cell line; details: read-out: IC50, inhibition of growth; cited from earlier work
[8] = test system: mantle cell lymphoma (MCL) Mino cell line; details: read-out: IC50, inhibition of growth; cited from earlier work
BTK [9] = target: T2, BTK (Mus musculus, UniProt P35991); details: mice, single dose of TG-1701 at 12.5 mg/kg; cited from earlier work
T2 construct: from tissue; host or cells: mouse spleen

B-NHL cell lines [10] = details: cited from earlier work
B-NHL cell lines [11] = details: cited from earlier work; remark: listed apart in the source
BTK [12] = target: T1, BTK; details: read-out: kinase inhibition IC50 against BTK; cited from earlier work
DLBCL SU-DHL-6 cell line = details: read-out: IC50, inhibition of growth; cited from earlier work
[13] = test system: SU-DHL-6 (GCB-DLBCL), Mino (MCL), and OCI-Ly10 (ABC-DLBCL) xenograft models; details: SU-DHL-6, Mino, OCI-Ly10 xenografts; cited from earlier work
JEKO cells = details: cited from earlier work
[14] = in vivo; cited from earlier work
[15] = ibrutinib n=263, acalabrutinib n=266; cited from earlier work
[16] = test system: relapsed and refractory hematologic malignancies; details: cited from earlier work
CD20 antigen = target: T3, CD20 antigen (Homo sapiens, UniProt P11836); details: cited from earlier work
T3 sequence (P11836 1-297): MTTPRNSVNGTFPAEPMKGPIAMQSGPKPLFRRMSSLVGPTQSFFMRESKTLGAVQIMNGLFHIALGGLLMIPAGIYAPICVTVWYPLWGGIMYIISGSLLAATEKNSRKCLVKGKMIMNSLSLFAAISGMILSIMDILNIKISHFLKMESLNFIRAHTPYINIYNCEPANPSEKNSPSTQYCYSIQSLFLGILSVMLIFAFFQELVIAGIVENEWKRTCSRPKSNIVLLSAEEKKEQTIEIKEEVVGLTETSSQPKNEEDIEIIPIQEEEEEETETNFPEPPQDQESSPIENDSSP

[17] = monotherapy 200 mg, CLL cohort, N = 20
[18] = monotherapy 200 mg, MCL cohort, N = 18
[19] = monotherapy 200 mg, WM cohort, N = 19
[20] = monotherapy dose escalation 100-400 mg, N = 23
[21] = patients with relapsed or refractory hematologic malignancies

T1 sequence (Q06187 whole entry): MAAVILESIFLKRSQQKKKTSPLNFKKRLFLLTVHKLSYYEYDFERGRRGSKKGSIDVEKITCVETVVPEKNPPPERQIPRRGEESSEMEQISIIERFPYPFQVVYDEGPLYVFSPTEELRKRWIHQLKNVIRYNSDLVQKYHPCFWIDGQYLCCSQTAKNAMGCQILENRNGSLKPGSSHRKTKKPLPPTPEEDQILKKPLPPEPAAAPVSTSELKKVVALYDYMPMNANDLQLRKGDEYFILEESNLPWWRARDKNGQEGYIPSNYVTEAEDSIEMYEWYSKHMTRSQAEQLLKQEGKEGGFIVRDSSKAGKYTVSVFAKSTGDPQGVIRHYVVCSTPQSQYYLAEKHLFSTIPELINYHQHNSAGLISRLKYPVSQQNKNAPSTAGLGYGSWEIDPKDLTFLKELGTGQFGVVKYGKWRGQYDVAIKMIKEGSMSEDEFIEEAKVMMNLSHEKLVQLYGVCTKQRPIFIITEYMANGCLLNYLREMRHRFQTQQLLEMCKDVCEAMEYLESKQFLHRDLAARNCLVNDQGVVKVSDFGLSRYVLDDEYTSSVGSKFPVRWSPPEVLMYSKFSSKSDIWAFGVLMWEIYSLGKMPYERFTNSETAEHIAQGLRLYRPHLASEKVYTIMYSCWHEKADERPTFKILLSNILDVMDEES
T2 sequence (P35991 whole entry): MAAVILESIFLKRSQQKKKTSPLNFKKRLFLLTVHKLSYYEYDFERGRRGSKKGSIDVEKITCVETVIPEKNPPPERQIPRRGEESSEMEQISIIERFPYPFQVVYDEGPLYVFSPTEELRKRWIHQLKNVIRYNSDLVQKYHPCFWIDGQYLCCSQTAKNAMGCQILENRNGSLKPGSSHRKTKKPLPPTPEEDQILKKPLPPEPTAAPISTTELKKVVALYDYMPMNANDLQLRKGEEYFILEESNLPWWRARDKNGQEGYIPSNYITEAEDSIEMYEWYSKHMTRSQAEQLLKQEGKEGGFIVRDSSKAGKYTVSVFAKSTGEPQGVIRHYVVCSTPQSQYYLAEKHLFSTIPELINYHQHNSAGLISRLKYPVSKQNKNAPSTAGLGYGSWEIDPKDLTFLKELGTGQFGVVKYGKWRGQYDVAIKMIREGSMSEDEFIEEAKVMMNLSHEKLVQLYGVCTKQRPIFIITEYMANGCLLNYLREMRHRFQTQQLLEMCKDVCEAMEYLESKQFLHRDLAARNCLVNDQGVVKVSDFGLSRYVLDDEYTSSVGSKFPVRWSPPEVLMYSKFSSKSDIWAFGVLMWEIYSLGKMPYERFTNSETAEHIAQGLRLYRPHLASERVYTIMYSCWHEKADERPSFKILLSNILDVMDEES
Sequence of EGFR (P00533 25-1210, species assumed): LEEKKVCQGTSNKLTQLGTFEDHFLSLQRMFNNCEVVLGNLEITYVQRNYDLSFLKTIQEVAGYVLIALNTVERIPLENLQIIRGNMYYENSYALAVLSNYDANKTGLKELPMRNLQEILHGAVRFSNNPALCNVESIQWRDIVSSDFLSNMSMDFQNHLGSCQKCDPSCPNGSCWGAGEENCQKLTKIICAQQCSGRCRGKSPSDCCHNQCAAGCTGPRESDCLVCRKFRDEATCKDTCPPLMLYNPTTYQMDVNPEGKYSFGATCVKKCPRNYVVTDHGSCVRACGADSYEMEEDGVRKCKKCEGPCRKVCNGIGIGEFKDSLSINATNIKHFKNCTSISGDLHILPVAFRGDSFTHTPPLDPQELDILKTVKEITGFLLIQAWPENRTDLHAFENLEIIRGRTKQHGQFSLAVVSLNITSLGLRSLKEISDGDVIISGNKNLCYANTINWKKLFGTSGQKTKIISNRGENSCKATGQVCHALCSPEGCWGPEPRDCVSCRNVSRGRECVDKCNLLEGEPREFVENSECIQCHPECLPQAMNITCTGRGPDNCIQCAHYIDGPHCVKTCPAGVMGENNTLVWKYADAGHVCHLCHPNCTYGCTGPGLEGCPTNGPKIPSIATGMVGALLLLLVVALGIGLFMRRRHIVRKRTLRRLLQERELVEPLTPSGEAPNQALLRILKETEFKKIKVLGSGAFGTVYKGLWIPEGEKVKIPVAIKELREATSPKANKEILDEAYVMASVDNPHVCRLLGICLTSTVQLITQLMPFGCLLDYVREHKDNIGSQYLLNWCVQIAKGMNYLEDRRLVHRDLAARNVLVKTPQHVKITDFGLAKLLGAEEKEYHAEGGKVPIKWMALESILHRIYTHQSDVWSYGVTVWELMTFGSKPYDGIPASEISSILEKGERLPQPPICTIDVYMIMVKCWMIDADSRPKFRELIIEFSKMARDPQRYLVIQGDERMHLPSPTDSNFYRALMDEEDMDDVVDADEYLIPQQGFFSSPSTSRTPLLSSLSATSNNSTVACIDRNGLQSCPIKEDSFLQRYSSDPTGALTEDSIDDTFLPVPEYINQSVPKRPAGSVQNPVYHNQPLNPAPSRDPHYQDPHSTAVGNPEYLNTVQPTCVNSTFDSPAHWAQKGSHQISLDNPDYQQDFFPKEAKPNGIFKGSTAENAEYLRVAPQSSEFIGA

Molecule: CC#CC(=O)N1CC[C@@H](n2cc(-c3ccc(Oc4c(F)cccc4F)cc3)c3c(N)n[nH]c(=O)c32)C1 [TG-1701, (R)-4-amino-1-(1-(but-2-ynoyl)pyrrolidin-3-yl)-3-(4-(2,6-difluorophenoxy)phenyl)-1,6-dihydro-7H-pyrrolo[2,3-d]pyridazin-7-one]
- IgM-activated BCR pathway: phosphorylation of BTK, PLCy2, and ERK1/2 [1]: inhibited
- G≥3 neutropenia [2]: 8%
- changes between pre- and on-treatment diastolic blood pressure nor QTc [2]: No significant changes
- patients with dose reduction due to treatment-related adverse events [2]: Four
- treatment discontinuations due to adverse events [2]: no treatment discontinuations due to adverse events
- ventricular tachyarrhythmia [2]: No cases
- IC50 (EGFR): 270 nM
- kinetics, dose proportionality of exposure [3]: Linear kinetics
- hematologic variables in patients with anemia and thrombocytopenia at baseline (B-cell malignancies; CLL 200-mg and 300-mg cohorts): sustained improvement
- lymphocytosis resolution to normal or less than 50% of baseline (B-cell malignancies; CLL monotherapy patients): 57.1%
- ORR (B-cell malignancies; CLL patients evaluable for response, Example 2): 95.6%
- median duration of response (B-cell malignancies; CLL patients, Example 2): has not been reached
- treatment discontinuation: Progression by iwCLL criteria (B-cell malignancies; CLL, dose-escalation 100-400 mg, N = 6): 1 N(%)
- complete responses (CR) confirmed (B-cell malignancies; TG-1701 monotherapy): No complete responses
- ORR (B-cell malignancies; [17]): 95%
- Stable disease (B-cell malignancies; [17]): 1 (5) N (%)
- Partial response (B-cell malignancies; monotherapy 200 mg, CLL cohort, N = 20, includes PR and PR-L): 19 (95)^b N (%)
- ORR (B-cell malignancies; [18]): 50%
- Partial response (B-cell malignancies; [18]): 9 (50) N (%)
- Progressive disease (B-cell malignancies; [18]): 3 (17) N (%)
- Stable disease (B-cell malignancies; [18]): 6 (33) N (%)
- Minor response (B-cell malignancies; [19]): 6 (32) N (%)
- ORR (B-cell malignancies; [19]): 95%
- Partial response (B-cell malignancies; [19]): 12 (63) N (%)
- Progressive disease (B-cell malignancies; [19]): 1 (5) N (%)
- Minor response (B-cell malignancies; [20]): 1 (4) N (%)
- ORR (B-cell malignancies; [20]): 52%
- Partial response (B-cell malignancies; [20]): 11 (48) N (%)
- Progressive disease (B-cell malignancies; [20]): 3 (13) N (%)
- Stable disease (B-cell malignancies; [20]): 8 (35) N (%)
- BTK occupancy (BTK [4]; 100 mg QD): full BTK occupancy
- saturation of the BTK (BTK [4]; all dose levels studied): ~100%
- receptor occupancy at 100 mg (BTK [4]; human, 100 mg QD): ≥ 99%
- % incidence of any grade Afib [5]: 3.8%
- % incidence of atrial fibrillation (Afib), Grade 3 or greater [5]: 1.9%
- treatment discontinuation: Death ([6]; dose-expansion 200 mg): 1^‡ N(%)
- treatment discontinuation: Death ([6]; dose-expansion 300 mg): 2^‡ N(%)
- IC50 [7]: 369 nM
- IC50 [8]: 449 nM
- BTK occupancy in the spleen (BTK [9]): completely occupied
- ADCP activity of rituximab in the presence of the BTK inhibitor (B-NHL cell lines [10]): conserved to a greater extent
- ADCP activity of ublituximab in combination with the BTK inhibitor (B-NHL cell lines [10]; increasing concentrations): conserved at all dose levels tested
- FcγR-driven ADCC and ADCP activity of anti-CD20 antibodies (e.g., ublituximab) (B-NHL cell lines [11]): does not impair
- ADCC activity of ublituximab in the presence of the BTK inhibitor (B-NHL cell lines [11]; compared to monotherapy ADCC activity of ublituximab, across cell lines): not significantly different
- IC50 (BTK [12]): 3 nM
- IC50 (DLBCL SU-DHL-6 cell line): 313 nM
- anti-tumor efficacy [13]: potent anti-tumor activity equivalent to or greater than ibrutinib
- CXCL12-dependent migration (JEKO cells): blocked
- IgM-dependent CD69 expression (JEKO cells): blocked
- adhesion of JEKO cells to VCAM-1 (JEKO cells): blocked

Molecule: CC[C@H](Nc1ncnc2[nH]cnc12)c1nc2cccc(F)c2c(=O)n1-c1ccccc1 [Idelalisib]
- immune mediated colitis, grade 3 [14]: ≥ 5%
- pneumonitis, grade 3 [14]: ≥ 4%
- transaminitis, grade 3 [14]: ≥ 8%

Molecule: CC#CC(=O)N1CCC[C@H]1c1nc(-c2ccc(C(=O)Nc3ccccn3)cc2)c2c(N)nccn12 [acalabrutinib]
- % incidence of any grade Afib [15]: 9%
- % incidence of atrial fibrillation (Afib), Grade 3 or greater [15]: 4.5%

Molecule: CC(C)Oc1ccc(-c2nn([C@@H](C)c3oc4ccc(F)cc4c(=O)c3-c3cccc(F)c3)c3ncnc(N)c23)cc1F [umbralisib, (S)-2-(1-(4-amino-3-(3-fluoro-4-isopropoxyphenyl)-1H-pyrazolo[3,4-d]pyrimidin-1-yl)ethyl)-6-fluoro-3-(3-fluorophenyl)-4H-chromen-4-one]
- patients with dose reduction of umbralisib due to G3-4 ALT elevation ([6]; combination arm, dose escalation): 3 patients
- doses with signs of clinical activity ([16]; in vivo): ≥ 800 mg each day
- hepatic toxicity [16, 21]: no reported hepatic toxicity
- tolerability [16, 21]: well-tolerated

B1: Ublituximab: chimeric monoclonal antibody targeting a unique epitope on the CD20 antigen, glycoengineered for enhanced affinity for Fcγ RIIIa receptors (antibody, V domains shown)
VH: QAYLQQSGAELVRPGASVKMSCKASGYTFTSYNMHWVKQTPRQGLEWIGGIYPGNGDTSYNQKFKGKATLTVGKSSSTAYMQLSSLTSEDSAVYFCARYDYNYAMDYWGQGTSVTVSS
VL: QIVLSQSPAILSASPGEKVTMTCRASSSVSYMHWYQQKPGSSPKPWIYATSNLASGVPARFSGSGSGTSYSFTISRVEAEDAATYYCQQWTFNPPTFGGGTRLEIK
modifications: Ublituximab Variable heavy chain; Ublituximab Variable light chain
- ADCC activity compared with rituximab and ofatumab (CD20 antigen): greater
